Values belong to the compound of their own block, whether it stands above or below them.
What was measured:
[1] = target: T1, Peroxisome proliferator-activated receptor alpha (Homo sapiens, UniProt Q07869); format: functional
T1 sequence (Q07869 whole entry): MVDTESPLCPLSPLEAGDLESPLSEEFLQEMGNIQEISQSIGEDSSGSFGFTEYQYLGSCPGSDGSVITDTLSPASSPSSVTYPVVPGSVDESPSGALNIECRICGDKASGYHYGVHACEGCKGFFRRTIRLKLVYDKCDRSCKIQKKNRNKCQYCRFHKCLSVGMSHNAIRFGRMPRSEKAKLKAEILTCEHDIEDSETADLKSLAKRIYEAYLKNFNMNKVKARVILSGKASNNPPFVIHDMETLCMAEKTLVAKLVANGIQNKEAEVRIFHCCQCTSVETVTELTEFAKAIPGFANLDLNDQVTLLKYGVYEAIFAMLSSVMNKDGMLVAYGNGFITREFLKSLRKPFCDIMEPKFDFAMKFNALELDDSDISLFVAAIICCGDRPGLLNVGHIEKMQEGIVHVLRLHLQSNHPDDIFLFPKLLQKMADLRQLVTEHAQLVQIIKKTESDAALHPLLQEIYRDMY

[2] = target: D(1B) dopamine receptor (Homo sapiens, UniProt P21918)
Sequence of D(1B) dopamine receptor (P21918 whole entry): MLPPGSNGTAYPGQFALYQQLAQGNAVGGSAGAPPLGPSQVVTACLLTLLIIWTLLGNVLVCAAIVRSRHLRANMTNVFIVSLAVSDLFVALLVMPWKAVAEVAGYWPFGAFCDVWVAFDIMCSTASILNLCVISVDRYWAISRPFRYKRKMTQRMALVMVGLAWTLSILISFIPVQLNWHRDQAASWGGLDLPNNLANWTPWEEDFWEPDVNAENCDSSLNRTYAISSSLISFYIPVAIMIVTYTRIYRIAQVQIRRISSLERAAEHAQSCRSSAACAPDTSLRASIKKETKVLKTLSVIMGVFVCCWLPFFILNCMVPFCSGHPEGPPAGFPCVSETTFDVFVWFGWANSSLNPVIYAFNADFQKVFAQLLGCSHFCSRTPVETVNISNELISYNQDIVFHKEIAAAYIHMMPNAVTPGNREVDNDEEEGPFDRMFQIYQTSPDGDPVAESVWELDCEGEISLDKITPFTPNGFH

[3] = target: T2, Oxysterols receptor LXR-beta (Homo sapiens, UniProt P55055); format: functional
T2 sequence (P55055 whole entry): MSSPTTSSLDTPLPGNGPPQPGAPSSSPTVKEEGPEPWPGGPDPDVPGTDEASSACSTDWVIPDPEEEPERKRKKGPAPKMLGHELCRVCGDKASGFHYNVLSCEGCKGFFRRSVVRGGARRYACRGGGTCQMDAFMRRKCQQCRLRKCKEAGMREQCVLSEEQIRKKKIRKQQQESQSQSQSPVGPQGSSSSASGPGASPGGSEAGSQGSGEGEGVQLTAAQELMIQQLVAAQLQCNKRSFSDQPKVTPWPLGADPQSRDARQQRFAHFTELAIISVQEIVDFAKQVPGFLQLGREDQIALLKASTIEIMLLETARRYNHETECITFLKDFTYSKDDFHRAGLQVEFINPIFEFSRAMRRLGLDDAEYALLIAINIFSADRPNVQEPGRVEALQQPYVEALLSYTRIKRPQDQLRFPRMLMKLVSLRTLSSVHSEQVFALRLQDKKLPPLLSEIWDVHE

[4] = target: T3, Oxysterols receptor LXR-alpha (Homo sapiens, UniProt Q13133); format: functional
T3 sequence (Q13133 whole entry): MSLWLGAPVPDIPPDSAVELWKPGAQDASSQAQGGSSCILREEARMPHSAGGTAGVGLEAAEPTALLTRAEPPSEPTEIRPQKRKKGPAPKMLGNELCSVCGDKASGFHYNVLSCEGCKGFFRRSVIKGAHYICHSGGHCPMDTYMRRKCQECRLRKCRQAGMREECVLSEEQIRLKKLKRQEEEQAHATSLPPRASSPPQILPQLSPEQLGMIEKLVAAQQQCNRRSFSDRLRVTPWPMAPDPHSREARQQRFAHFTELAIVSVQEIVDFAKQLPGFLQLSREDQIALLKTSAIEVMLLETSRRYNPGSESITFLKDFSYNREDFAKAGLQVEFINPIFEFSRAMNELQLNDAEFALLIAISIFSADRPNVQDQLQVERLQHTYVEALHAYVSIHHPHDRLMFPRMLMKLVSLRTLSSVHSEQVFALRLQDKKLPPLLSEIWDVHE

[5] = target: T4, Retinoic acid receptor alpha (Homo sapiens, UniProt P10276); format: functional, cell-based
T4 sequence (P10276 whole entry): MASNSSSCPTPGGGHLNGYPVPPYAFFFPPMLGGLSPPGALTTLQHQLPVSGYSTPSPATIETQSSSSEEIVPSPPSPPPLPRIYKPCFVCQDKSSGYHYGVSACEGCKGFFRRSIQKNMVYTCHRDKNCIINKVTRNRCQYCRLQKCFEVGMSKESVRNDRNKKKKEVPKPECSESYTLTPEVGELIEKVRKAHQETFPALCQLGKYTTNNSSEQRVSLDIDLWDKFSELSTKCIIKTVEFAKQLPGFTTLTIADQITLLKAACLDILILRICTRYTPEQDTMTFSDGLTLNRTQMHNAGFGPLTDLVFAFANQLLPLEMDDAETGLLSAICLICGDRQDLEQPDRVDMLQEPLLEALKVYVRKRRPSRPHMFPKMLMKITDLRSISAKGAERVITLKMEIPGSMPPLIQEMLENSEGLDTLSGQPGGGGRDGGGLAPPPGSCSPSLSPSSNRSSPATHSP

[6] = target: T4, Retinoic acid receptor alpha; format: functional, cell-based; remark: listed apart in the source
[7] = target: T5, Thromboxane A2 receptor (Homo sapiens, UniProt P21731); format: functional
T5 sequence (P21731 whole entry): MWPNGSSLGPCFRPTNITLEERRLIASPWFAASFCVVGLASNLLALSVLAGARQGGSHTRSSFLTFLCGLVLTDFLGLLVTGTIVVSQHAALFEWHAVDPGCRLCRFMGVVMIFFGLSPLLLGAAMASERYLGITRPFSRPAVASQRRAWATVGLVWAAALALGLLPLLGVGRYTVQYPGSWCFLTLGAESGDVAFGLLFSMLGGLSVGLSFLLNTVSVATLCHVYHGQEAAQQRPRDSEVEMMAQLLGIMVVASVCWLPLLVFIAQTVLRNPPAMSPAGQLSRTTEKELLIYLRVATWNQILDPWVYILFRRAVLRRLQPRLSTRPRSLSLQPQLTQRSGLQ

[8] = target: D(1A) dopamine receptor (Homo sapiens, UniProt P21728)
Sequence of D(1A) dopamine receptor (P21728 whole entry): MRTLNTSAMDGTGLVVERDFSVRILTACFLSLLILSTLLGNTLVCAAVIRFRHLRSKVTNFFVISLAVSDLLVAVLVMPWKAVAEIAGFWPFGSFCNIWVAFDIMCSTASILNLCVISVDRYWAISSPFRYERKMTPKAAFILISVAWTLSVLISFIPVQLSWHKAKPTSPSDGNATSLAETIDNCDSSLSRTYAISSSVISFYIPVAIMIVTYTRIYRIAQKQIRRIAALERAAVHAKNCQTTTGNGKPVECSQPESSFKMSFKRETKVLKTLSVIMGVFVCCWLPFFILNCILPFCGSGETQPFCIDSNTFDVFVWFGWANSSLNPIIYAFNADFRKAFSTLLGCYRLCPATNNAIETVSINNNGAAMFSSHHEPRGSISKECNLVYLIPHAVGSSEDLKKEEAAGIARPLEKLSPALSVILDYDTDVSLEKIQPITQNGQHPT

[9] = target: T6, 5-hydroxytryptamine receptor 1A (Homo sapiens, UniProt P08908)
T6 sequence (P08908 whole entry): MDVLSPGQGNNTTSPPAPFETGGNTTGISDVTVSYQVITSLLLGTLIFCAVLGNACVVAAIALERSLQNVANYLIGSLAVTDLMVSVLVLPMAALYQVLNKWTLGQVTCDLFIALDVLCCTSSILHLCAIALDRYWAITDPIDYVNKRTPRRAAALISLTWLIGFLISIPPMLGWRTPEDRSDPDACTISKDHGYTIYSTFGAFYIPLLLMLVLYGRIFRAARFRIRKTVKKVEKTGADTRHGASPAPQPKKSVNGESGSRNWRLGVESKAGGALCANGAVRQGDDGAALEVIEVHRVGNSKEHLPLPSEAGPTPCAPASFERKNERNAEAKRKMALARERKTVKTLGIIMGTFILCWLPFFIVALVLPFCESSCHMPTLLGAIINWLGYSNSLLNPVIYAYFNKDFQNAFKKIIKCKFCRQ

[10] = target: T2, Oxysterols receptor LXR-beta; format: functional; remark: listed apart in the source
[11] = target: 5-hydroxytryptamine receptor 2A (Homo sapiens, UniProt P28223)
Sequence of 5-hydroxytryptamine receptor 2A (P28223 whole entry): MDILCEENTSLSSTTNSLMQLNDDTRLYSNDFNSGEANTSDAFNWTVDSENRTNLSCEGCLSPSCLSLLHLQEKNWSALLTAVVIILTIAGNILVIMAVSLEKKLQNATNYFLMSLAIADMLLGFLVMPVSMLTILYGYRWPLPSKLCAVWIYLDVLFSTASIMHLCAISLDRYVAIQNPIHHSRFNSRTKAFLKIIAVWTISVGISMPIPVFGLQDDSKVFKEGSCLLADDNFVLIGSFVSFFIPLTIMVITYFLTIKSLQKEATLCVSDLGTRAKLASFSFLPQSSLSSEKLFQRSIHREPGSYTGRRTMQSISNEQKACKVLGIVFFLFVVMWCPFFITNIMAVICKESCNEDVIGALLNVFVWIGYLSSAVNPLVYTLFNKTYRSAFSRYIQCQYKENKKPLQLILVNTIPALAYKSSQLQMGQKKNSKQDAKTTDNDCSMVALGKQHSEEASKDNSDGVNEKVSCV
Also: assay procedure not described here.

SMILES: COc1ccccc1Oc1c(NS(=O)(=O)c2ccc(C(C)(C)C)cc2)nc(-c2ncccn2)nc1OCCO [BOSENTAN]
AC50 [1]: > 30 µM

SMILES: Cc1onc(-c2ccccc2)c1-c1ccc(S(N)(=O)=O)cc1 [VALDECOXIB]
AC50 [2]: > 10 µM

SMILES: CCN(CC)CCNC(=O)c1c(C)[nH]c(/C=C2\C(=O)Nc3ccc(F)cc32)c1C [SUNITINIB]
AC50 [3]: > 30 µM
AC50 [4]: > 10 µM
AC50 [5]: > 10 µM
AC50 [6]: > 3 µM

SMILES: COc1cc2nccc(Oc3ccc(NC(=O)C4(C(=O)Nc5ccc(F)cc5)CC4)cc3)c2cc1OC [CABOZANTINIB]
AC50 [7]: > 30 µM
AC50 [8]: > 30 µM
AC50 [9]: > 30 µM

SMILES: CC(C)Cc1ccc(C(C)C(=O)O)cc1 (stereo not drawn) [IBUPROFEN]
AC50 [1]: > 30 µM

SMILES: C=CC[C@@H]1/C=C(\C)C[C@H](C)C[C@H](OC)[C@H]2O[C@@](O)(C(=O)C(=O)N3CCCC[C@H]3C(=O)O[C@H](/C(C)=C/[C@@H]3CC[C@@H](O)[C@H](OC)C3)[C@H](C)[C@@H](O)CC1=O)[C@H](C)C[C@@H]2OC [TACROLIMUS ANHYDROUS]
AC50 [7]: > 30 µM

Second part, the compound after the results:

AC50 [3]: > 30 µM
AC50 [4]: > 30 µM
AC50 [10]: > 30 µM
AC50 [5]: > 30 µM
AC50 [6]: > 30 µM
SMILES: CC(C(=O)O)c1ccc2c(c1)[nH]c1ccc(Cl)cc12 (stereo not drawn) [CARPROFEN]

AC50 [11]: > 10 µM
SMILES: CN(C)CCc1c[nH]c2ccc(Cn3cncn3)cc12 [RIZATRIPTAN]

AC50 [2]: > 10 µM
SMILES: N[C@@H](CC(=O)N1CCn2c(nnc2C(F)(F)F)C1)Cc1cc(F)c(F)cc1F [SITAGLIPTIN]

Reference: ChEMBL document CHEMBL5291721, “A preclinical secondary pharmacology resource illuminates target-adverse drug reaction associations of marketed drugs” (Nat Commun, 2023)
